# Measurements published in patent publication US10124033B2, “Peptides and methods of use” (BAXALTA INCORPORATED, priority 2014, dated 2018).
# Non-standard residues stand in square brackets, D forms with d. Residues, ends and D or L forms follow the SMILES beside them. Tle = CC(C)(C)[C@H](N)C(=O)O
# Assays:
# Protein S [1] = target: T1, Protein S (Homo sapiens, UniProt P07225); experiment: LANCE IC50 assay (competition TR-FRET) with tracer JBS0684; format: binding; conditions: Table 4, multiple substitutions in JBS2572; read-out: LANCE IC50
# T1 sequence (P07225 41-676 limits assumed): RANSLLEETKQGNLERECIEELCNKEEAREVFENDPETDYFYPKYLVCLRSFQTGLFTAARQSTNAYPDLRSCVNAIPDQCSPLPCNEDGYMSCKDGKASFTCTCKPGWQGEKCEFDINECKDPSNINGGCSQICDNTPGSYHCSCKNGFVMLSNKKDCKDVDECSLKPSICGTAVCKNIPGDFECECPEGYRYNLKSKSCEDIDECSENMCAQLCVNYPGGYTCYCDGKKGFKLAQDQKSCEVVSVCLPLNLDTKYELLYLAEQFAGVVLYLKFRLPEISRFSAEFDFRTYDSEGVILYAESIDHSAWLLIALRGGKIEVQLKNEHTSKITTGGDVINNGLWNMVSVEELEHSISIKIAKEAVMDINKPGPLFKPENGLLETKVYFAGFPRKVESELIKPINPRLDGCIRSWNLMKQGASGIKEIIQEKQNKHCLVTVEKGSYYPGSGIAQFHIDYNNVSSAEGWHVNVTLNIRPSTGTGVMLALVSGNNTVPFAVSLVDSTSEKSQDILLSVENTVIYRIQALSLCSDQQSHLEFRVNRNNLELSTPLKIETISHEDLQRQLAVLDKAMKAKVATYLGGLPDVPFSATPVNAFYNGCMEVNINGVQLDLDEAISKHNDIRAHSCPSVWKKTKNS
# Description: Peptides also were characterized in a competition, homogenous europium-based TR-FRET assay (LANCE IC50 assay) using JBS0684 as a tracer (i.e., competitor for Protein S binding). The following reagents were mixed together in a Perkin-Elmer ProxiPlate MTP well (indicated concentration is the final concentration): Eu-labeled Protein S (10 nM), Ulight™-labeled Streptavidin (100 nM), tracer (JBS0684 (300 nM)), and peptide (titrated in three-fold dilution steps). The final volume was 50 μl/well. The reaction mix was incubated for 1 hour at room temperature, then the fluorescence emission at 665 nm was recorded on a multi-mode reader (SpectraMax® M5, Molecular Devices) using the following instrument settings: Ex 340 nm, Em 665 nm, delay 50 μsec, integration 100 μsec, reads 100. Binding of tracer peptides to soluble europium-labeled Protein S was detected by Streptavidin labeled with an acceptor fluorophor (ULight™). Inhibition of tracer-binding to Protein S by a non-biotinylated peptide results in a decrease of TR-FRET between the Eu-labeled Protein S and ULight™-labeled Streptavidin. IC50 values were obtained from peptide titration curves at constant tracer concentration using non-linear regression of the fluorescence emission signals at 665 nm.
# Protein S [2] = target: T1, Protein S; experiment: competition (IC50) ELISA with biotinylated tracer peptide JBS0684; format: binding; conditions: competition ELISA, tracer JBS0684; re-synthesized peptides
# Description: The new peptide candidates were synthesized (purity >60%) and screened for affinity in a competitive binding assay (ELISA IC50) and activity in a thrombin generation assay (CAT). The competition (IC50) ELISA was performed using biotinylated tracer peptide JBS0684 to compete for Protein S-binding with candidate peptides. Peptides that compete with the tracer bind the same region of Protein S as the tracer (and each other). Ninety-six well PolySorp plates (Nunc) were coated with 3 μg/mL Protein S in coating buffer (15 mM Na2CO3, 35 mM NaHCO3, pH 9.6) over night. Plates were washed three times with wash buffer (HNaT: 175 mM NaCl, 25 mM HEPES, 5 mM CaCl2, 0.1% Tween 80, pH 7.35), and blocked with 100 μl 2% yeast extract in HNaT for at least 1 hour. Plates were then washed three times with HNaT. JBS0684 was applied at a concentration corresponding to the EC90 value determined in the binding ELISA. A competitor stock solution of peptide (10 mM) was diluted 1/33.3 in HNaT without HSA, and a serial ⅓ dilution was prepared with HNaT with 3% DMSO. The dilution was further diluted with the biotinylated tracer peptide in a ratio of 1:6 (20 μl competitor dilution and 100 μl tracer peptide). The mixture of competitor and tracer peptide was applied to the Protein S-coated microtiter plate and incubated for 1.5 hours. The plates were washed three times with HNaT. Peptide-Protein S binding was detected by applying HRP-conjugated streptavidin to the microtiter plate, incubating the mixture for one hour, washing the plate three times with HNaT, applying TMB (3,3′5,5′-Tetramethylbenzidin), and detecting the subsequent chromogenic conversion of TMB by HRP. IC50 measurements of peptides are provided herein (see, e.g., Table 3).
IC50 (Protein S [1]) [nM],IC50 (Protein S [2]) [nM],SMILES
–,5.2,CC(=O)N[C@H](C(=O)NCC(=O)N[C@@H](Cc1c[nH]cn1)C(=O)N[C@H](C(=O)N[C@@H](CO)C(=O)N[C@@H](C)C(=O)NCC(=O)N[C@@H](Cc1c[nH]c2ccccc12)C(=O)N[C@@H](Cc1ccc(O)cc1)C(=O)N[C@@H](CC(=O)O)C(=O)N[C@@H](Cc1ccc(O)cc1)C(=O)N[C@@H](CC(N)=O)C(=O)N[C@@H](Cc1ccccc1)C(=O)N[C@@H](CC(=O)O)C(=O)N[C@@H](C)C(=O)N[C@@H](Cc1ccc(O)cc1)C(=O)N[C@@H](CCCNC(=N)N)C(=O)N[C@@H](CCC(=O)O)C(=O)N[C@@H](Cc1ccccc1)C(=O)N[C@H](C(N)=O)[C@@H](C)O)C(C)C)[C@@H](C)O [JBS2528] (Ac-TGHVSAGWYDYNFDAYREFT-NH2)
–,1.6,CC(=O)N[C@H](C(=O)NCC(=O)N[C@@H](Cc1c[nH]cn1)C(=O)N[C@H](C(=O)N[C@@H](CO)C(=O)N[C@@H](C)C(=O)NCC(=O)N[C@@H](Cc1c[nH]c2ccccc12)C(=O)N[C@@H](Cc1ccc(O)cc1)C(=O)N[C@@H](CC(=O)O)C(=O)N[C@@H](Cc1ccc(O)cc1)C(=O)N[C@@H](CC(N)=O)C(=O)N[C@@H](Cc1ccccc1)C(=O)N[C@@H](CC(=O)O)C(=O)N[C@@H](Cc1c[nH]cn1)C(=O)N[C@@H](Cc1ccc(O)cc1)C(=O)N[C@@H](Cc1ccccc1)C(=O)N[C@@H](CCC(=O)O)C(=O)N[C@@H](Cc1ccccc1)C(=O)N[C@H](C(N)=O)[C@@H](C)O)C(C)C)[C@@H](C)O [JBS2625] (Ac-TGHVSAGWYDYNFDHYFEFT-NH2)
–,3.1,CC(=O)N[C@H](C(=O)N1CCC[C@H]1C(=O)N[C@@H](Cc1c[nH]cn1)C(=O)N[C@H](C(=O)N[C@@H](CO)C(=O)N[C@@H](C)C(=O)NCC(=O)N[C@@H](Cc1c[nH]c2ccccc12)C(=O)N[C@@H](Cc1ccc(O)cc1)C(=O)N[C@@H](CC(=O)O)C(=O)N[C@@H](Cc1ccc(O)cc1)C(=O)N[C@@H](CC(N)=O)C(=O)N[C@@H](Cc1ccccc1)C(=O)N[C@@H](CC(=O)O)C(=O)N[C@@H](Cc1c[nH]cn1)C(=O)N[C@@H](Cc1ccc(O)cc1)C(=O)N[C@@H](CCCNC(=N)N)C(=O)N[C@@H](CCC(=O)O)C(=O)N[C@@H](Cc1ccccc1)C(=O)N[C@H](C(N)=O)[C@@H](C)O)C(C)C)[C@@H](C)O [JBS2629] (Ac-TPHVSAGWYDYNFDHYREFT-NH2)
–,2.8,CC(=O)N[C@H](C(=O)NCC(=O)N[C@@H](Cc1c[nH]cn1)C(=O)N[C@H](C(=O)N[C@@H](CO)C(=O)N[C@@H](C)C(=O)NCC(=O)N[C@@H](Cc1c[nH]c2ccccc12)C(=O)N[C@@H](Cc1ccc(O)cc1)C(=O)N[C@@H](CC(=O)O)C(=O)N[C@@H](Cc1ccc(O)cc1)C(=O)N[C@@H](CC(N)=O)C(=O)N[C@@H](Cc1ccccc1)C(=O)N[C@@H](CC(=O)O)C(=O)N[C@@H](CO)C(=O)N[C@@H](Cc1ccc(O)cc1)C(=O)N[C@@H](CCCNC(=N)N)C(=O)N[C@@H](CCC(=O)O)C(=O)N[C@@H](Cc1ccccc1)C(=O)N[C@H](C(N)=O)[C@@H](C)O)C(C)C)[C@@H](C)O [JBS2661] (Ac-TGHVSAGWYDYNFDSYREFT-NH2)

# Second part, the compound before the results:
SMILES,IC50 (Protein S [1]) [nM],IC50 (Protein S [2]) [nM]
CC(=O)N[C@H](C(=O)NCC(=O)N[C@@H](CC(C)C)C(=O)N[C@H](C(=O)N[C@@H](CCC(=O)O)C(=O)N[C@@H](C)C(=O)NCC(=O)N[C@@H](Cc1c[nH]c2ccccc12)C(=O)N[C@@H](Cc1ccc(O)cc1)C(=O)N[C@@H](CC(=O)O)C(=O)N[C@@H](Cc1ccc(O)cc1)C(=O)N[C@@H](CC(N)=O)C(=O)N[C@@H](Cc1ccccc1)C(=O)N[C@@H](CC(=O)O)C(=O)N[C@H](C(=O)N[C@@H](Cc1ccc(O)cc1)C(=O)N[C@@H](CCCNC(=N)N)C(=O)N[C@@H](CCC(=O)O)C(=O)N[C@@H](Cc1ccccc1)C(=O)N[C@H](C(N)=O)[C@@H](C)O)[C@@H](C)O)C(C)C)[C@@H](C)O [JBS3192] (Ac-TGLVEAGWYDYNFDTYREFT-NH2),2.8,–
"CC(=O)N[C@H](C(=O)NCC(=O)N[C@@H](CC(C)C)C(=O)N[C@H](C(=O)N[C@@H](CO)C(=O)N[C@@H](C)C(=O)NCC(=O)N[C@@H](Cc1c[nH]c2ccccc12)C(=O)N[C@@H](Cc1ccc(O)cc1)C(=O)N[C@@H](CC(=O)O)C(=O)N[C@@H](Cc1ccc(O)cc1)C(=O)N[C@@H](CC(N)=O)C(=O)N[C@@H](Cc1ccccc1)C(=O)N[C@@H](CC(=O)O)C(=O)N[C@H](C(=O)N[C@@H](Cc1ccc(O)cc1)C(=O)N[C@@H](CCCNC(=N)N)C(=O)N[C@@H](CCC(=O)O)C(=O)N[C@@H](Cc1ccccc1)C(=O)N[C@H](C(N)=O)[C@@H](C)O)[C@@H](C)O)C(C)(C)C)[C@@H](C)O [JBS3202, Ac-TGL-Tle-SAGWYDYNFDTYREFT-NH2] (Ac-TGL[Tle]SAGWYDYNFDTYREFT-NH2)",1.6,–
CC(=O)N[C@@H](Cc1ccc(O)cc1)C(=O)NCC(=O)N[C@@H](CC(C)C)C(=O)N[C@H](C(=O)N[C@@H](CO)C(=O)N[C@@H](C)C(=O)NCC(=O)N[C@@H](Cc1c[nH]c2ccccc12)C(=O)N[C@@H](Cc1ccc(O)cc1)C(=O)N[C@@H](CC(=O)O)C(=O)N[C@@H](Cc1ccc(O)cc1)C(=O)N[C@@H](CC(N)=O)C(=O)N[C@@H](Cc1ccccc1)C(=O)N[C@@H](CC(=O)O)C(=O)N[C@H](C(=O)N[C@@H](Cc1ccc(O)cc1)C(=O)N[C@@H](CCCNC(=N)N)C(=O)N[C@@H](CCC(=O)O)C(=O)N[C@@H](Cc1ccccc1)C(=O)N[C@H](C(N)=O)[C@@H](C)O)C(C)C)C(C)C [JBS3191] (Ac-YGLVSAGWYDYNFDVYREFT-NH2),1.6,–
CC(=O)N[C@H](C(=O)NCC(=O)N[C@@H](CCCCN)C(=O)N[C@H](C(=O)N[C@@H](CO)C(=O)N[C@@H](C)C(=O)NCC(=O)N[C@@H](Cc1c[nH]c2ccccc12)C(=O)N[C@@H](Cc1ccc(O)cc1)C(=O)N[C@@H](CC(=O)O)C(=O)N[C@@H](Cc1ccc(O)cc1)C(=O)N[C@@H](CC(N)=O)C(=O)N[C@@H](Cc1ccccc1)C(=O)N[C@@H](CC(=O)O)C(=O)N[C@@H](Cc1c[nH]cn1)C(=O)N[C@@H](Cc1ccc(O)cc1)C(=O)N[C@@H](CCCNC(=N)N)C(=O)N[C@@H](CCC(=O)O)C(=O)N[C@@H](Cc1ccccc1)C(=O)N[C@H](C(N)=O)[C@@H](C)O)C(C)C)[C@@H](C)O [JBS2592] (Ac-TGKVSAGWYDYNFDHYREFT-NH2),–,5.6
CC(=O)N[C@H](C(=O)NCC(=O)N[C@@H](Cc1c[nH]cn1)C(=O)N[C@H](C(=O)N[C@@H](CO)C(=O)N[C@@H](C)C(=O)NCC(=O)N[C@@H](Cc1c[nH]c2ccccc12)C(=O)N[C@@H](Cc1ccc(O)cc1)C(=O)N[C@@H](CC(=O)O)C(=O)N[C@@H](Cc1ccc(O)cc1)C(=O)N[C@@H](CC(N)=O)C(=O)N[C@@H](CC(C)C)C(=O)N[C@@H](CC(=O)O)C(=O)N[C@@H](Cc1c[nH]cn1)C(=O)N[C@@H](Cc1ccc(O)cc1)C(=O)N[C@@H](CCCNC(=N)N)C(=O)N[C@@H](CCC(=O)O)C(=O)N[C@@H](Cc1ccccc1)C(=O)N[C@H](C(N)=O)[C@@H](C)O)C(C)C)[C@@H](C)O [JBS2582] (Ac-TGHVSAGWYDYNLDHYREFT-NH2),–,2.3
